Data as given in patent US11241455B2, “Methods of treating disease by metabolic control of T-cell differentiation” (The J. David Gladstone Institutes, a testamentary trust …, priority 2016, dated 2022).

Tests used:
[1] = test system: differentiating TH17 cells; experiment: TH17 differentiation of CD4 naïve T cells (IL17F-RFP/FOXP3-GFP reporter or intracellular staining of IL-17 and FOXP3); type: cell-based, mouse; details: for rescue of the inhibitory effect of AOA on TH17 cell differentiation: in the presence of AOA, day 6, 0.75 mM α-KG, 0.5 mM 2-HG, 0.5 mM succinate, 50 μM fumarate, 0.5 mM malate, 0.5 mM citrate, 1 mM NAC, 1 mM GSH
Method: (§1) CD4 naïve T cells (CD4+CD25-CD62^highCD44^low) were obtained from interleukin (IL)-17F-red fluorescent protein (RFP)/FOXP3-green fluorescent protein (GFP) mice, which were characterized previously, or wild-type C57/BL6 mice, by cell sorting. 0.4 million cells were plated into 48 wells coated with anti-mouse CD3 (clone 145-2C11, eBioscience) […] and anti-mouse CD28 (clone 37.51, eBioscience) (1 μg/ml). The differentiation media for these naïve T cells was as follows: 0.5 ng/ml (or indicated) transforming growth factor (TGF) β, 200 U/ml mouse IL-2, 2 μg/ml anti-interferon (IFN) γ and 2 μg/ml anti-mouse IL4 for differentiation into iTreg cells; and 2.5 ng/ml TGFβ, 10 ng/ml mouse IL-1β, 10 ng/ml mouse IL-6, 10 ng/ml mouse IL-23, 2 μg/ml anti-mouse IFNγ, and anti-mouse IL-4 for differentiating into TH17 cells. The cells were supplemented with new medium at day 4. In cases in which small-molecule compounds were present, the fresh medium containing the same concentration of compounds was used. When necessary, the individual metabolite was added into the T-cell culture 6 hours later after initial cell plating. On day 6, the cells were analyzed for IL17F-RFP and FOXP3-GFP or the cells were collected and restimulated for 4-6 hours with PMA, inomycin, and Golgi-stop for intracellular staining in absence of indicated compounds.
To identify small molecules that regulate cell-fate switching of TH17/iTreg cells and to further understand the regulation of the TH17/iTreg balance, 10,000 individual small molecules were phenotypically screened using CD4 naïve T cells from IL-17F-RFP/FOXP3-GFP mice. The naïve T cells were cultured under optimal TH17 differentiation conditions and compounds that could reprogram TH17 differentiation toward iTreg cell fate were identified using the reporter readout. Briefly, after TH17 differentiation for 24 hours, compounds were added to TH17 culture, and the treatment was continued for an additional 5 days before the cells were analyzed for IL17F-RFP and FOXP3-GFP expression by high-throughput fluorescence-activated cell sorting (FACS) (FIG. 5a). […] This effect of reprogrammed differentiation was further confirmed by intracellular immunostaining of IL-17 and FOXP3 (FIG. 1a).

[2] = test system: differentiating iTreg cells; experiment: iTreg differentiation of CD4 naïve T cells (FOXP3-GFP reporter or intracellular staining of FOXP3); type: cell-based, mouse; details: for reversal of the enhancing effect of AOA on iTreg cell differentiation: in the presence of AOA, day 5, 0.5 mM α-KG, 0.125 mM 2-HG (0.25 mM in FIG. 2g), 0.5 mM succinate, 50 μM fumarate, 0.5 mM malate, 0.5 mM citrate
Method: as §1, with “On day 6, the cells were analyzed for IL17F-RFP and FOXP3-GFP or the cells were collected and restimulated for 4-6 hours with PMA, inomycin, and Golgi-stop for intracellular staining in absence of indicated compounds.” left out

IDH1 and IDH2 = experiment: Retroviral shRNA knockdown of IDH1 and/or IDH2 in T cells under TH17 condition, intracellular staining of IL-17 and FOXP3; type: cell-based, mouse; details: sorted GFP+ cells cultured under TH17 condition
Method: (§2) Short hairpin RNAs (ShRNAs) (synthesized DNA oligos), after annealing, were cloned into PMKO.1-GFP retrovirus vector. The plasmids and pCL-ECO (1:1) were transfected into 293T cells with Fugene® HD4 (Promega). The medium was changed 6 hours after transfection, and the cells were further cultured for 48-72 hours. The supernatant was then collected and filtered using […]. The supernatant containing the viruses was added into pre-activated CD4+ T cells (20 hours after initial plating). The cells were spin-infected at 1000 g for 2 hours and cultured in incubator for another 2 hours. The cells were washed and cultured under TH17 conditions for an additional 4 days. New medium was added if necessary. At day 5, the cells were collected for sorting GFP+ cells and GFP− cells. Sorted cells were further cultured until day 6, and re-stimulated for intracellular staining or mRNA analysis, as described above.
2-HG, which was originally identified in cancer cells harboring isocitrate dehydrogenase (IDH) 1/2 mutation, is also known to be produced via wild-type IDH1 and IDH2 reactions as well. Among all the dehydrogenases examined in this study, only IDH1 and 2 are highly expressed in differentiating TH17 cells (FIGS. 10a, 10d). […] GFP+ cells and GFP− cells were sorted and analyzed by intracellular staining of IL-17 and FOXP3.

IDH1 and/or IDH2 mRNA = experiment: mRNA expression of IDH1 and IDH2 in shRNA-infected GFP+ cells; type: cell-based, mouse; details: GFP+ cells re-stimulated with anti-CD3 and anti-CD28; normalized to β-actin
Method: (§3) At the end of differentiation (day 6), T cells were re-stimulated with plate-coated anti-CD3 and anti-CD28 for 5 hours in the absence of any small-molecule compounds or metabolites. Quantitative reverse transcriptase polymerase chain reaction (qRT-PCR) was performed to evaluate mRNA expression of FOXP3, Il17, Il17f, and Rorc. For differentiating TH17 or iTreg cells, cells were collected on day 2.5 or at the indicated time for mRNA expression analysis. The expression was normalized to β-actin.
as §2, with “Sorted cells were further cultured until day 6, and re-stimulated for intracellular staining or mRNA analysis, as described above.” left out

Got1 = target: T1, Got1 (Mus musculus, UniProt P05201); experiment: Retroviral shRNA knockdown of Got1 in differentiating TH17 cells, intracellular staining of FOXP3 and IL-17; type: cell-based; details: sorted GFP+ cells, TH17 condition, day 6; versus empty vector or GFP− cells
T1 construct: Got1 was knocked down in differentiating TH17 cells with retrovirus containing GFP and shRNA against Got1; endogenous in cells; host or cells: primary mouse CD4 naive T cells differentiated under TH17 conditions
T1 sequence (P05201 whole entry): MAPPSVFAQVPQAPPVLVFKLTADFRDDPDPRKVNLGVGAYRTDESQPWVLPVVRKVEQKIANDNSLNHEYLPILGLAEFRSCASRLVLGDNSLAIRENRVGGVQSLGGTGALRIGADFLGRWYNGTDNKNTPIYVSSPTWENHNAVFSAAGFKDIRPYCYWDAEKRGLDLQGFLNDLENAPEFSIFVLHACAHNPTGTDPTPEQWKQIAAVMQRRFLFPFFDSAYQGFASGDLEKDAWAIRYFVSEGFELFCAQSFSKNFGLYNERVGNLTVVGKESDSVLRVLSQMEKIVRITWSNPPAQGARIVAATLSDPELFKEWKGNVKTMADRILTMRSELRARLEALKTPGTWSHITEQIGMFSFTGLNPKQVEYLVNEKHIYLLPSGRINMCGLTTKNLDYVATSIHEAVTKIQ
Method: as §2

[3] = test system: FOXP3, Il17, Il17f, and Rorc mRNA in TH17 cells; experiment: mRNA expression analysis by qRT-PCR in TH17 cells; type: cell-based, mouse; details: normalized to β-actin
Method: as §3

[4] = test system: FOXP3 mRNA in iTreg cells; experiment: mRNA expression analysis by qRT-PCR in iTreg cells; type: cell-based, mouse; details: normalized to β-actin
Method: as §3

[5] = test system: FOXP3 promoter and its intronic CpG island; experiment: Methylation analysis by bisulfite sequencing, T cells under TH17 condition; type: cell-based, mouse; details: 0.5 mM dimethyl R-2-HG (day 4) or AOA (day 6), male mice
Method: (§4) The method is essentially the same as described previously (Kim, et al. J Exp Med 204 (7), 1543-1551 (2007)). Briefly, genomic DNA was purified with Blood & Cell Culture DNA Midi Kit (Qiagen). Bisufite conversion of genomic DNA was performed using Epitect® bisulfite kit (Qiagen), according to the manufacture's instruction. The PCR product was run on 2% agarose, purified and cloned using TOPO® TA Cloning® Kit with PCR®4. Clones are picked for Sanger sequencing.

[6] = test system: FOXP3 promoter and its intronic CpG island; experiment: Methylation analysis by bisulfite sequencing, T cells under iTreg condition; type: cell-based, mouse; details: iTreg condition (day 5); 0.5 mM dimethyl R-2-HG or AOA; male mice
Method: as §4

[7] = re-stimulated with anti-CD3 and anti-CD28 for 5 hours

Row | Molecule | rescue of the inhibitory effect of AOA on TH17 cell differentiation [1] | reversal of the enhancing effect of AOA on iTreg cell differentiation [2] | reduction of the percentage of IL-17 producing cells (IDH1 and IDH2) | mRNA expression of IDH1 and/or IDH2 (IDH1 and/or IDH2 mRNA) | percentage of IL17+ cells (Got1) | proportion of FOXP3+ cells (Got1) | further results
1 | COC(=O)CCC(=O)C(=O)OC [dimethyl-α-KG] | rescued the inhibitory effect of AOA on TH17 differentiation | reversed its enhancing effect on iTreg differentiation | – | – | – | – | –
2 | shRNA against IDH2: shRNA targeting IDH2 (SEQ ID NO: 50) in PMKO.1-GFP retrovirus vector (CCGGGAAGAGTTCAAGCTGAAGAAACTCGAGTTTCTTCAGCTTGAACTCTTCTTTTTG) | – | – | approximately 30% | efficiently suppressed the mRNA expression | – | – | –
3 | GOT1-1: shRNA targeting GOT1 (SEQ ID NO: 47) in PMKO.1-GFP retrovirus vector (CCGGCCACATGAGAAGACGTTTCTTCTCGAGAAGAAACGTCTTCTCATGTGGTTTTTG) | – | – | – | – | reduced | reciprocally increased | –
4 | GOT1-2: shRNA targeting GOT1 (SEQ ID NO: 48) in PMKO.1-GFP retrovirus vector (CCGGGTCGAACAGAAGATTGCTAATCTCGAGATTAGCAATCTTCTGTTCGACTTTTTG) | – | – | – | – | reduced | reciprocally increased | –
5 | shRNA against IDH1: shRNA targeting IDH1 (SEQ ID NO: 49) in PMKO.1-GFP retrovirus vector (CCGGCCTGGGCTTAGAATGAGTCTTCTCGAGAAGACTCATTCTAAGCCCAGGTTTTTG) | – | – | approximately 30% | efficiently suppressed the mRNA expression | – | – | –
6 | COC(=O)CC[C@@H](O)C(=O)OC [Dimethyl R-2-HG, (R)-dimethyl 2-hydroxyglutarate] | rescued the inhibitory effect of AOA on TH17 differentiation | reversed its enhancing effect on iTreg differentiation | – | – | – | – | direct effect on TH17 cell differentiation (IL-17/IL-17F and FOXP3 expression) ([1]; in the absence of AOA, exogenously added dimethyl metabolite): directly promoted TH17 cell differentiation by up-regulating IL-17/IL-17F expression and down-regulating FOXP3 expression in a dose-dependent manner; FOXP3 expression under iTreg condition ([2]; in the absence of AOA, analyzed on day 5): inhibited FOXP3 expression; FOXP3 mRNA expression [3]: suppressed FOXP3 mRNA expression; Il17/Il17f mRNA level [3, 7]: increased Il17/Il17f mRNA; Rorc mRNA level [3, 7]: did not affect Rorc mRNA; FOXP3 mRNA expression [4]: suppressed FOXP3 mRNA expression; methylation level of FOXP3 promoter and its intronic CpG island [5]: dramatically increase methylation level; methylation level of FOXP3 promoter and its intronic CpG island [6]: dramatically increase methylation level
